Experimental data published in ChEMBL document CHEMBL2069206 (J Med Chem, 2012).

Assays:
[1] = target: T1, Adenosine receptor A1 (Homo sapiens, UniProt P30542); assay: Displacement of 3[H]R-PIA from human A1 adenosine receptor expressed in CHO cells after 60 mins by Liquid scintillation analysis; type: cell-based
T1 sequence (P30542 whole entry): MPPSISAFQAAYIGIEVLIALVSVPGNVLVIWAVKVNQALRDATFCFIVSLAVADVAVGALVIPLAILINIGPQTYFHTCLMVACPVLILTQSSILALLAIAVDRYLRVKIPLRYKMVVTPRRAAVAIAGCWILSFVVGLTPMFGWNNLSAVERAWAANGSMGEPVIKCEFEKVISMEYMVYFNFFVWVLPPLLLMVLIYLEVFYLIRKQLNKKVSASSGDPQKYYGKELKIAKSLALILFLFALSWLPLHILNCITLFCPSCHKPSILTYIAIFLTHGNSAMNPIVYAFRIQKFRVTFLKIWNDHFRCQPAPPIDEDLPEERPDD

[2] = target: T2, Adenosine receptor A2a (Homo sapiens, UniProt P29274); assay: Displacement of 3[H]CGS21680 from human A2A adenosine receptor expressed in HEK293 cells after 60 mins by Liquid scintillation analysis; type: cell-based
T2 sequence (P29274 whole entry): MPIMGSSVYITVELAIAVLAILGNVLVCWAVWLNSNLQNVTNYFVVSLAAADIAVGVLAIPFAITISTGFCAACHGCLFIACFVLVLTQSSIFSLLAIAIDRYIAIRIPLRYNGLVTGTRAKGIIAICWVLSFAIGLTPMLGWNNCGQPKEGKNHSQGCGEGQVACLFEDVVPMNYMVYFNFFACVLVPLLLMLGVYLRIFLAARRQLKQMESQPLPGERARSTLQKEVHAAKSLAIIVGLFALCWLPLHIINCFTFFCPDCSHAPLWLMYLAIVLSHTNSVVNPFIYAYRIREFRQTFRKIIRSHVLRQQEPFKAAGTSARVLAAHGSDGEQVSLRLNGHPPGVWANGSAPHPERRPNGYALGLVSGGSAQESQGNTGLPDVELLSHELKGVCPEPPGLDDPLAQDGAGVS

[3] = target: T3, Adenosine receptor A3 (Homo sapiens, UniProt P0DMS8); assay: Displacement of [125I]I-AB-MECA from human A3 adenosine receptor expressed in CHO cells after 60 mins gamma counter; type: cell-based
T3 sequence (P0DMS8 whole entry): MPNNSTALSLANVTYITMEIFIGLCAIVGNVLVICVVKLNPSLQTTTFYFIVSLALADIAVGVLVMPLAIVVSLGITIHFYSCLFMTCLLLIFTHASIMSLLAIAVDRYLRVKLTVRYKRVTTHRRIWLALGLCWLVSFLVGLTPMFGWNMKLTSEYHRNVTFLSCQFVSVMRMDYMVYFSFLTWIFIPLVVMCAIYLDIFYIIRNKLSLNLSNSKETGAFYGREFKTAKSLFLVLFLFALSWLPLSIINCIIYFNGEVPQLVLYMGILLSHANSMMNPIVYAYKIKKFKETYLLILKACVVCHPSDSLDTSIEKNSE

[4] = target: T4, Adenosine receptor A1 (Homo sapiens) (UniProt P30542); assay: Agonist activity at human A1 adenosine receptor expressed in CHO cells assessed as inhibition of forskolin-induced cAMP accumulation after 30 mins relative to NECA; type: functional, cell-based
T4 sequence (whole entry): T1 sequence (P30542 whole entry)

[5] = target: T2, Adenosine receptor A2a; assay: Agonist activity at human A2A adenosine receptor expressed in CHO cells assessed as stimulation of forskolin-induced cAMP accumulation after 30 mins relative to NECA; type: functional, cell-based
[6] = target: T2, Adenosine receptor A2a; assay: Agonist activity at human A2A adenosine receptor expressed in CHO cells assessed as stimulation of forskolin-induced cAMP accumulation after 30 mins; type: functional, cell-based
[7] = target: T4, Adenosine receptor A1 (Homo sapiens); assay: Partial agonist activity at human A1 adenosine receptor expressed in CHO cells assessed as inhibition of forskolin-induced cAMP accumulation after 30 mins relative to NECA; type: functional, cell-based
[8] = target: T1, Adenosine receptor A1; assay: Partial agonist activity at human A1 adenosine receptor expressed in CHO cells assessed as inhibition of forskolin-induced cAMP accumulation after 30 mins; type: functional, cell-based
[9] = target: T5, Adenosine receptor A1 (Rattus norvegicus) (UniProt P25099); settings: CHO, 10 uM
T5 sequence (whole entry): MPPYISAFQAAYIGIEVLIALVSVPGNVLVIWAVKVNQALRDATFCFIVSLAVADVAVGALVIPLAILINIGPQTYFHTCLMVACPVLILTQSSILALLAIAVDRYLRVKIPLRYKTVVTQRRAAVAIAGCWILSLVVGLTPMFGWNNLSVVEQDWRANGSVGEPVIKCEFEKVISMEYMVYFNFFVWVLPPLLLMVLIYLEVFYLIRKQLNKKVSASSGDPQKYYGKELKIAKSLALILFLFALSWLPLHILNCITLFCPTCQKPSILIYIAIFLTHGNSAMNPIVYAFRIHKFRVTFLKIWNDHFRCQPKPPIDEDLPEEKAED

[10] = target: Adenosine receptor A2a (Rattus norvegicus) (UniProt P30543); settings: HEK293, 10 uM
Adenosine receptor A2a (Rattus norvegicus), sequence (P30543 whole entry): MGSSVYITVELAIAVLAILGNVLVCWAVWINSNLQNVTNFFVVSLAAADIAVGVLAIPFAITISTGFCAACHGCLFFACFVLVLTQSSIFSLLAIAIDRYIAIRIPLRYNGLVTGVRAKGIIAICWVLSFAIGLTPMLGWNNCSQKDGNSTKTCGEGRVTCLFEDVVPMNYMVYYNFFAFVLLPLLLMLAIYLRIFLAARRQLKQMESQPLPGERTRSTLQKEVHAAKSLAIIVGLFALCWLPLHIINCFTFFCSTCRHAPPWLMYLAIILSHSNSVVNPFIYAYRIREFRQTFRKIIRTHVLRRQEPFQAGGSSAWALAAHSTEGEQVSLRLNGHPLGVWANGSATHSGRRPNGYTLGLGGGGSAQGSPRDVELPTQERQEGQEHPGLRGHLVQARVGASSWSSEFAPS

With `Nc1ncnc2c1ncn2[C@@H]1O[C@H](C(=O)NC2CCCC2)[C@@H](O)[C@H]1O` the Ki [1] was 27 nM, the Ki [2] was 650 nM and the Ki [3] was 70 nM. The Efficacy [4] was 92.5%, the Efficacy [5] was 75% and the EC50 [6] was 225 nM.
`NCCCNC(=O)[C@H]1O[C@@H](n2cnc3c(N)ncnc32)[C@H](O)[C@@H]1O` showed a Ki [1] greater than 10000 nM.
With `Nc1ncnc2c1ncn2[C@@H]1O[C@H](C(=O)NCC(F)(F)F)[C@@H](O)[C@H]1O` the Ki [1] was […], the Ki [3] was 700 nM and the Efficacy [7] was 73.4%.
For `Nc1ncnc2c1ncn2[C@@H]1O[C@H](C(=O)NC2CCC2)[C@@H](O)[C@H]1O`, the Ki [2] was 34 nM, the Ki [3] was 70 nM and the Efficacy [5] was 99%. The Efficacy [7] was 65.2%, the EC50 [8] was 15.1 nM and the EC50 [6] was 26.8 nM.
`NCCNC(=O)[C@H]1O[C@@H](n2cnc3c(N)ncnc32)[C@H](O)[C@@H]1O` showed an inhibition [9] greater than 10% and an inhibition [10] greater than 10%.
Compound `Nc1ncnc2c1ncn2[C@@H]1O[C@H](C(=O)NC2CC2)[C@@H](O)[C@H]1O` has a Ki [1] of 1.9 nM, a Ki [2] of 50 nM and a Ki [3] of 180 nM. The Efficacy [4] was 95.4% and the EC50 [6] was 22.9 nM.
`CCNC(=O)[C@H]1O[C@@H](n2cnc3c(N)ncnc32)[C@H](O)[C@@H]1O` gave an Efficacy [4] of 100%.
